Assay results from publication PMC11576293, “New series of 4,6-diaryl pyrimidines: facile synthesis and antiproliferative activity as dual EGFR/VEGFR-2 inhibitors” (Frontiers in Chemistry, 2024).

How the values were obtained:
OVCAR-8 = test: NCI-60 single-dose screen; format: cell-based; conditions: Homo sapiens, single dose 10 µM, '-' = no inhibition, read-out: % Growth Inhibition
Method: (§1) The National Cancer Institute’s Developmental Therapeutic Program (www.dtp.nci.nih.gov) has tested compounds 9–29 (except compounds 21 and 22) against 60 cancer cell lines from nine types (leukemia, lung, colon, CNS, melanoma, ovarian, renal, prostate, and breast cancer) at a single dose (10 μM) ([El-Sherief et al., 2018]). […] The most sensitive cells included leukemia (SR, K-562, and MOLT-4), lung (NCI-H522, […], and EKVX), breast (MCF-7 and T-47D), colon (HCT-15 and HT-29), and ovarian (NCI/ADR-RES).
(§2) The National Cancer Institute’s Developmental Therapeutic Program (www.dtp.nci.nih.gov) evaluated compounds 9–29 (excluding 21 and 22) against 60 cancer cell lines from nine categories (leukemia, lung, colon, CNS, melanoma, ovarian, renal, prostate, and breast cancer) at a single dose (10 μM) ([El-Sherief et al., 2018]). See Supplementary Material A1 for more details.

A498 = test: NCI-60 single-dose screen; format: cell-based; conditions: Homo sapiens, single dose 10 µM, '-' = no inhibition, read-out: % Growth Inhibition
Method: as §1, §2

PC-3 = test: NCI-60 single-dose screen; format: cell-based; conditions: Homo sapiens, single dose 10 µM, '-' = no inhibition, read-out: % Growth Inhibition
Method: as §1, §2

BT-549 = test: NCI-60 single-dose screen; format: cell-based; conditions: Homo sapiens, single dose 10 µM, '-' = no inhibition, read-out: % Growth Inhibition
Method: as §1, §2

SF-539 = test: NCI-60 single-dose screen; format: cell-based; conditions: Homo sapiens, single dose 10 µM, '-' = no inhibition, read-out: % Growth Inhibition
Method: as §1, §2

NCI-H322M = test: NCI-60 single-dose screen; format: cell-based; conditions: Homo sapiens, single dose 10 µM, '-' = no inhibition, read-out: % Growth Inhibition
Method: as §1, §2

SR = test: NCI-60 single-dose screen; format: cell-based; conditions: Homo sapiens, single dose 10 µM, '-' = no inhibition, read-out: % Growth Inhibition
Method: as §1, §2

TK-10 = test: NCI-60 single-dose screen; format: cell-based; conditions: Homo sapiens, single dose 10 µM, '-' = no inhibition, read-out: % Growth Inhibition
Method: as §1, §2

HL-60(TB) = test: NCI-60 single-dose screen; format: cell-based; conditions: Homo sapiens, single dose 10 µM, '-' = no inhibition, read-out: % Growth Inhibition
Method: as §1, §2

SF-268 = test: NCI-60 single-dose screen; format: cell-based; conditions: Homo sapiens, single dose 10 µM, '-' = no inhibition, read-out: % Growth Inhibition
Method: as §1, §2

IGROV1 = test: NCI-60 single-dose screen; format: cell-based; conditions: Homo sapiens, IGROV-1, single dose 10 µM, '-' = no inhibition, read-out: % Growth Inhibition
Method: as §1, §2

RPMI-8226 = test: NCI-60 single-dose screen; format: cell-based; conditions: Homo sapiens, single dose 10 µM, '-' = no inhibition, read-out: % Growth Inhibition
Method: as §1, §2

MDA-MB-435 = test: NCI-60 single-dose screen; format: cell-based; conditions: Homo sapiens, single dose 10 µM, '-' = no inhibition, read-out: % Growth Inhibition
Method: as §1, §2

NCI-H23 = test: NCI-60 single-dose screen; format: cell-based; conditions: Homo sapiens, single dose 10 µM, '-' = no inhibition, read-out: % Growth Inhibition
Method: as §1, §2

SF-295 = test: NCI-60 single-dose screen; format: cell-based; conditions: Homo sapiens, single dose 10 µM, '-' = no inhibition, read-out: % Growth Inhibition
Method: as §1, §2

NCI-H460 = test: NCI-60 single-dose screen; format: cell-based; conditions: Homo sapiens, single dose 10 µM, '-' = no inhibition, read-out: % Growth Inhibition
Method: as §1, §2

ACHN 1 = test: NCI-60 single-dose screen; format: cell-based; conditions: Homo sapiens, single dose 10 µM, '-' = no inhibition, read-out: % Growth Inhibition
Method: as §1, §2

SK-OV-3 = test: NCI-60 single-dose screen; format: cell-based; conditions: Homo sapiens, single dose 10 µM, '-' = no inhibition, read-out: % Growth Inhibition
Method: as §1, §2

CAKI-1 = test: NCI-60 single-dose screen; format: cell-based; conditions: Homo sapiens, single dose 10 µM, '-' = no inhibition, read-out: % Growth Inhibition
Method: as §1, §2

EKVX = test: NCI-60 single-dose screen; format: cell-based; conditions: Homo sapiens, single dose 10 µM, '-' = no inhibition, read-out: % Growth Inhibition
Method: as §1, §2

K-562 = test: NCI-60 single-dose screen; format: cell-based; conditions: Homo sapiens, K562, single dose 10 µM, '-' = no inhibition, read-out: % Growth Inhibition
Method: as §1, §2

HCT-15 = test: NCI-60 single-dose screen; format: cell-based; conditions: Homo sapiens, single dose 10 µM, '-' = no inhibition, read-out: % Growth Inhibition
Method: as §1, §2

NCI/ADR-RES = test: NCI-60 single-dose screen; format: cell-based; conditions: Homo sapiens, single dose 10 µM, '-' = no inhibition, read-out: % Growth Inhibition
Method: as §1, §2

MCF7 = test: NCI-60 single-dose screen; format: cell-based; conditions: Homo sapiens, single dose 10 µM, '-' = no inhibition, read-out: % Growth Inhibition
Method: as §1, §2

SNB-75 = test: NCI-60 single-dose screen; format: cell-based; conditions: Homo sapiens, single dose 10 µM, '-' = no inhibition, read-out: % Growth Inhibition
Method: as §1, §2

HT29 = test: NCI-60 single-dose screen; format: cell-based; conditions: Homo sapiens, HT-29, single dose 10 µM, '-' = no inhibition, read-out: % Growth Inhibition
Method: as §1, §2

LOX IMVI = test: NCI-60 single-dose screen; format: cell-based; conditions: Homo sapiens, single dose 10 µM, '-' = no inhibition, read-out: % Growth Inhibition
Method: as §1, §2

RXF 393 = test: NCI-60 single-dose screen; format: cell-based; conditions: Homo sapiens, single dose 10 µM, '-' = no inhibition, read-out: % Growth Inhibition
Method: as §1, §2

UACC-257 = test: NCI-60 single-dose screen; format: cell-based; conditions: Homo sapiens, single dose 10 µM, '-' = no inhibition, read-out: % Growth Inhibition
Method: as §1, §2

CCRF-CEM = test: NCI-60 single-dose screen; format: cell-based; conditions: Homo sapiens, single dose 10 µM, '-' = no inhibition, read-out: % Growth Inhibition
Method: as §1, §2

NCI-H522 = test: NCI-60 single-dose screen; format: cell-based; conditions: Homo sapiens, single dose 10 µM, '-' = no inhibition, read-out: % Growth Inhibition
Method: as §1, §2

MDA-MB231/ATCC = test: NCI-60 single-dose screen; format: cell-based; conditions: Homo sapiens, MDA-MB-231, single dose 10 µM, '-' = no inhibition, read-out: % Growth Inhibition
Method: as §1, §2

MOLT-4 = test: NCI-60 single-dose screen; format: cell-based; conditions: Homo sapiens, single dose 10 µM, '-' = no inhibition, read-out: % Growth Inhibition
Method: as §1, §2

KM12 = test: NCI-60 single-dose screen; format: cell-based; conditions: Homo sapiens, single dose 10 µM, '-' = no inhibition, read-out: % Growth Inhibition
Method: as §1, §2

SN12C = test: NCI-60 single-dose screen; format: cell-based; conditions: Homo sapiens, single dose 10 µM, '-' = no inhibition, read-out: % Growth Inhibition
Method: as §1, §2

DU-145 = test: NCI-60 single-dose screen; format: cell-based; conditions: Homo sapiens, single dose 10 µM, '-' = no inhibition, read-out: % Growth Inhibition
Method: as §1, §2

OVCAR-3 = test: NCI-60 single-dose screen; format: cell-based; conditions: Homo sapiens, single dose 10 µM, '-' = no inhibition, read-out: % Growth Inhibition
Method: as §1, §2

SK-MEL-28 = test: NCI-60 single-dose screen; format: cell-based; conditions: Homo sapiens, single dose 10 µM, '-' = no inhibition, read-out: % Growth Inhibition
Method: as §1, §2

UO-31 = test: NCI-60 single-dose screen; format: cell-based; conditions: Homo sapiens, single dose 10 µM, '-' = no inhibition, read-out: % Growth Inhibition
Method: as §1, §2

SW-620 = test: NCI-60 single-dose screen; format: cell-based; conditions: Homo sapiens, single dose 10 µM, '-' = no inhibition, read-out: % Growth Inhibition
Method: as §1, §2

SNB-19 = test: NCI-60 single-dose screen; format: cell-based; conditions: Homo sapiens, single dose 10 µM, '-' = no inhibition, read-out: % Growth Inhibition
Method: as §1, §2

M14 = test: NCI-60 single-dose screen; format: cell-based; conditions: Homo sapiens, single dose 10 µM, '-' = no inhibition, read-out: % Growth Inhibition
Method: as §1, §2

HCC-2998 = test: NCI-60 single-dose screen; format: cell-based; conditions: Homo sapiens, single dose 10 µM, '-' = no inhibition, read-out: % Growth Inhibition
Method: as §1, §2

UACC-62 = test: NCI-60 single-dose screen; format: cell-based; conditions: Homo sapiens, single dose 10 µM, '-' = no inhibition, read-out: % Growth Inhibition
Method: as §1, §2

MDA-MB-468 = test: NCI-60 single-dose screen; format: cell-based; conditions: Homo sapiens, single dose 10 µM, '-' = no inhibition, read-out: % Growth Inhibition
Method: as §1, §2

SK-MEL-2 = test: NCI-60 single-dose screen; format: cell-based; conditions: Homo sapiens, single dose 10 µM, '-' = no inhibition, read-out: % Growth Inhibition
Method: as §1, §2

MALME-3M = test: NCI-60 single-dose screen; format: cell-based; conditions: Homo sapiens, single dose 10 µM, '-' = no inhibition, read-out: % Growth Inhibition
Method: as §1, §2

## COc1ccc(-c2cc(-c3ccc(Cl)cc3)nc(SC(C)C)n2)cc1OC [Compound 26, 4-(4-Chlorophenyl)-2-(isopropylthio)-6-(3,4-dimethoxyphenyl)pyrimidine]
OVCAR-8
  inhibition at 10 µM: 4.2%
A498
  inhibition at 10 µM: < 0%
PC-3
  inhibition at 10 µM: < 0%
BT-549
  inhibition at 10 µM: < 0%
SF-539
  inhibition at 10 µM: < 0%
NCI-H322M
  inhibition at 10 µM: 1.11%
SR
  inhibition at 10 µM: 12.6%
TK-10
  inhibition at 10 µM: < 0%
HL-60(TB)
  inhibition at 10 µM: 14.5%
SF-268
  inhibition at 10 µM: < 0%
IGROV1
  inhibition at 10 µM: < 0%
RPMI-8226
  inhibition at 10 µM: 0.53%
MDA-MB-435
  inhibition at 10 µM: 1.25%
NCI-H23
  inhibition at 10 µM: < 0%
SF-295
  inhibition at 10 µM: < 0%
NCI-H460
  inhibition at 10 µM: < 0%
ACHN 1
  inhibition at 10 µM: < 0%
SK-OV-3
  inhibition at 10 µM: < 0%
CAKI-1
  inhibition at 10 µM: 9.22%
EKVX
  inhibition at 10 µM: 4.59%
K-562
  inhibition at 10 µM: 6.67%
HCT-15
  inhibition at 10 µM: 4.73%
NCI/ADR-RES
  inhibition at 10 µM: < 0%
MCF7
  inhibition at 10 µM: 18.1%
SNB-75
  inhibition at 10 µM: < 0%
HT29
  inhibition at 10 µM: 13.1%
LOX IMVI
  inhibition at 10 µM: 4.14%
RXF 393
  inhibition at 10 µM: < 0%
UACC-257
  inhibition at 10 µM: 0.69%
CCRF-CEM
  inhibition at 10 µM: 1.08%
NCI-H522
  inhibition at 10 µM: 9.05%
MDA-MB231/ATCC
  inhibition at 10 µM: 4.5%
MOLT-4
  inhibition at 10 µM: 5.51%
KM12
  inhibition at 10 µM: 1.72%
SN12C
  inhibition at 10 µM: 8.05%
DU-145
  inhibition at 10 µM: < 0%
OVCAR-3
  inhibition at 10 µM: < 0%
SK-MEL-28
  inhibition at 10 µM: < 0%
UO-31
  inhibition at 10 µM: 15.2%
SW-620
  inhibition at 10 µM: 2.64%
SNB-19
  inhibition at 10 µM: 3.77%
M14
  inhibition at 10 µM: < 0%
HCC-2998
  inhibition at 10 µM: < 0%
UACC-62
  inhibition at 10 µM: 17.4%
MDA-MB-468
  inhibition at 10 µM: 7.33%
SK-MEL-2
  inhibition at 10 µM: < 0%
MALME-3M
  inhibition at 10 µM: < 0%
other
  melting point: 233 to 253 °C
